Columns and labels:
[1] = test system: Ankylosing spondylitis in HLA B27 Tg rat; assay: HLA-B27/Huβ2m transgenic rat model of ankylosing spondylitis
Excerpt: Etanercept and tofactinib (Balagué et al. Profiling of dihydroorotate dehydrogenase, p38 and JAK inhibitors in the rat adjuvant-induced arthritis model: a translational study. Br J Pharmacol. 2012 June; 166(4):1320-32) were included in this rat study as comparator molecules.

[2] = plasma exposure in HLA-B27/Huβ2m rats; settings: 10 mg/kg daily oral (comparator)
Excerpt: In each disease model, steady-state pharmacokinetics were characterized.

AUCLST [2] | Compound | Paw Swelling Inhibition (%) ([1]; 10 mg/kg twice weekly subcutaneous injection (comparator)) | Paw Swelling Inhibition (%) ([1]; 10 mg/kg daily oral gavage (comparator))
 | Etanercept | 42% | 
6540 ng·h/mL | C[C@@H]1CCN(C(=O)CC#N)C[C@@H]1N(C)c1ncnc2[nH]ccc12 [Tofacitinib, tofacitinib, reference compound] |  | 47%

From patent US20220251105A1, “METHODS OF TREATING A MK2-MEDIATED DISORDER” (Celgene CAR LLC, priority 2019, published 2022)
